Experimental data from US20260207519A1, “ISOLATED TARGETED DELIVERY SYSTEM FOR THE TREATMENT OF OVARIAN CANCER” (CELLIS SP. Z O.O. [LTD.], priority 2022, published 2026).

Test system: A2780_luc tumors
Test: 3rd in vivo study: A2780_luc orthotopic xenograft model
Design: species or system female Balb/c nude mice
Conditions: vehicle 13 days; Kaplan-Meier, log-rank test
Experimental: FIG. 14: The Kaplan-Meier survival curve of female nude mice implanted […] with A2780_luc tumors. N=8 for both groups initially. Statistical analysis was carried out using log-rank (Mantel-Cox) test.
All in vivo studies were performed using female Balb/c nude mice at age 5-8 weeks. Animals were imaged using an In Vivo Imaging System (IVIS, Newton 7.0, Vilber).
A2780_luc or A2780-cis_luc cells were orthotopically implanted into both ovaries of mice. 5 days after implant mice were imaged using IVIS and those with most similar bioluminescent intensity values were assigned to the following treatment groups: […]

N.N.[Cl][Pt][Cl] [cisplatin, Cisplatin]
median survival: 14.5 days
